Data reported in a melting point compilation (Tetko et al.; mined from patent text by program, amines drawn as free bases though some values may be those of a salt).

Row | melting point | SMILES
1 | 130 to 133 °C | N#Cc1ccc(CCn2ccn([C@H]3CCc4c(F)cc(F)cc4C3)c2=S)cc1
2 | 171 to 173 °C | CC(=O)c1ccc(S(=O)(=O)Nc2cccnc2Nc2ccccc2)cc1
3 | 217 to 218 °C | CC(=O)c1ccc(C=CC(=O)N2CCc3c([nH]c4ccccc34)C2c2ccc3c(c2)OCO3)cc1O (centres undefined)
4 | 105 to 108 °C | C=CCS(=O)(=O)c1ccc(NN=C(C)C)cc1
5 | 154 °C | CC(NC(=O)C(C)(Cc1ccccc1)NC(=O)OC(c1ccc(F)cc1)C(C)C)c1ccccc1 (centres undefined)
6 | 228 to 234 °C | COc1ccc(N2C(=O)N(c3ccc(OC)cc3)C(C)c3cnc(Nc4ccccc4)nc32)cc1 (centres undefined)
7 | 61.5 to 63 °C | Fc1c(Br)ccc2c1OC(c1ccccc1)(c1ccccc1)O2
8 | 76 to 78 °C | ICC(c1ccccc1)c1ccccc1
9 | 173 °C | COc1ccc(C2(c3ccc(OC)cc3)CC(C)N=C2NC(=O)c2cc(C)[nH]n2)cc1 (centres undefined)
10 | 95 to 96 °C | CCCCCCCN(CCc1ccc(OC(C)(C)C(=O)O)cc1)C(=O)Nc1ccc(OC)cc1OC
11 | 201 to 202 °C | CCCn1c(=O)c2c(nc(/C=C/c3ccc(OC)c(OC(C)=O)c3)n2C)n(CCC)c1=O
12 | 139 to 141 °C | CN1CC(=O)N(C(c2ccccc2)c2ccccc2)C1=S
13 | 142 to 143 °C | C#CCNC(=O)c1cccc(-c2cccc(OCCc3ccc(OC)c(OC)c3)n2)c1
14 | 250 to 252 °C | O=C(O)c1cccc(Nc2nc(Oc3ccccc3)nc(Oc3ccccc3Cl)n2)c1
15 | 130 °C | CC(O)C(O)Cc1cc(C(N)=O)ccc1C(N)=O (centres undefined)
16 | 126 to 127 °C | O=C(O)c1nc(C2CC2)nc(Cl)c1Cl
17 | 211 °C | Clc1ccc(-c2n[nH]c(SC3CCNCC3)c2-c2ccncc2)cc1
18 | 139 to 140 °C | Cc1cc(-c2nnnn2C2CC2)ccc1N

More lines, now with the values behind:

Row | SMILES | melting point
19 | Cc1cccc(C)c1NC(=O)CC1CCN(CCC2CCOc3ccccc32)CC1 (centres undefined) | 136 °C
20 | Nc1cc2[nH]c(=O)c(C(=O)O)nc2cc1F | > 300 °C
21 | c1ccc(CCc2cc3cccnc3[nH]2)cc1 | 157 to 158 °C
22 | CC(Br)C(=O)c1cc2c(Cl)cccc2s1 (centres undefined) | 104 to 106 °C
23 | COc1ccc(C2CCCCC2)cc1-c1csc(NC(=O)C2CCN(C(=O)OC(C)(C)C)CC2)n1 | 193 °C
24 | CCCC(NC(=O)CN1C(=O)N(c2ccc(C)cc2)C2(CCCCC2)C1=O)c1ccccc1 (centres undefined) | 208 to 210 °C
25 | Cn1ccnc1-c1ccc(OCC(O)CNCCOc2ccc(O)c(C(N)=O)c2)cc1 (centres undefined) | 108 to 112 °C
26 | O=C(O)C1CCC2C(=O)OC(=O)C2C1 (centres undefined) | 250 °C
27 | O=C(O)/C=C/c1cn(Cc2ccc(OCc3csc(-c4ccccc4)n3)cc2)nc1-c1cccs1 | 137 to 138 °C
28 | COc1ccc(F)cc1C(C)(C)CC(O)(Cn1cnc(=O)c2ccccc21)C(F)(F)F (centres undefined) | 118 to 121 °C
29 | O=S(=O)(NCCN1CC(c2ccccc2)C(c2ccc(Cl)cc2)=N1)c1cccc(C(F)(F)F)c1 (centres undefined) | 94 to 96 °C
30 | O=C(N[C@H](Cc1ccc(C(F)(F)F)cc1)[C@@H](O)c1ccc(F)cc1)c1ccc(F)c2ccccc12 (racemic) | 210 to 211 °C
31 | O=CNc1nc(C(=NOC2CCCCC2)C(=O)O)cs1 | > 230 °C
32 | CCN(CC)c1cc(C)c2c(c1)C(=O)OC2=O | 128 °C
33 | CC12CCC3c4ccc(O)cc4CCC3C1CC=C2c1cccnc1 (centres undefined) | 256 to 258 °C
34 | CCOC(=O)C=Cc1cc(N2C(=O)C3C4CC4CN3C2=O)c(F)cc1Cl (centres undefined) | 123 to 124 °C
35 | COC(=O)[C@H](Cc1ccc([N+](=O)[O-])cc1)NC(=O)C1(CCCCS(C)(=O)=O)CCCC1 | 40 to 44 °C
36 | C1=NNSc2ccccc21 | 314 °C
37 | CC1=NN=C(c2ccc([N+](=O)[O-])cc2)c2cc(Cl)ccc2C1 | 199 to 203 °C
38 | CC(C)c1cc(O)cc(C(C)C)c1NC(=O)CN1CCN(CCSc2nc3ccccc3o2)CC1 | 162 to 164 °C
39 | CC(C)C(C)(C(=O)O)N1C(=O)c2ccccc2C1=O (centres undefined) | 151 to 152 °C
